Experiments:
Assay type in all cases: physicochemical
[1] = Physical state of the isolated dye; settings: for Physical State of Dye: after isolation according to Procedure B
Description: alternatively, the crude liquid dye may be taken up with a volatile solvent and the solvent removed during the drying process to yield a non-volatile liquid colorant.

[2] = Dissolution of 58% dye in 42% fuel by warming, cooling to 25° C. (six heating/diesel oils); settings: 58% by weight dye, warmed, cooled to 25° C.
Procedure: No. 2 Regular Grade Diesel Oil
Each dye-fuel oil mixture was warmed with stirring and then cooled to 25° C.

[3] = Storage solubility in No. 1 and No. 2 Heating Oil at ambient temperature and -10° C.
Procedure: The resultant mixtures were stored at ambient temperatures (20° to 25° C.) and at -10° C. Where any separation of dye occurred, the dye content of the remaining solution was determined colorimetrically.

[4] = Storage solubility in xylene at 20°-25° C. and -10° C.
Procedure: The solutions obtained were stored at 20°-25°C. and at -10° C. Where any separation of dye occurred, the dye content of the remaining solution was determined colorimetrically.

[5] = Rate and extent of dissolution in No. 1 and No. 2 Heating Oils at 25° C. (colorimetric); settings: for Percent Dissolved: 25° C.
Procedure: The solubility properties of each of the dyes of Examples 16-41 were evaluated in the fuels No. 1 and No. 2 Heating Oils, respectively. The procedure was as follows:
Where the dyes are solid dyes, excess of pulverized solid dye, far beyond that which would dissolve, i.e., 30 to 35% dye, was added to the respective oils at 25° C. and agitated at constant speed. Samples were removed at 1, 10 and 20 minute intervals, filtered, and the amount of dissolved dye determined colorimetrically.
The tarry non-solid dyes were charged in proportions of 50-60% dye to 50-40% oil rather than 30-35% used for the solid dyes. In fact, it was very difficult to stir the tarry dye-fuel oil mixture at a dye concentration of 50%. Samples for these dyes were taken after 2 minutes. The longer initial time for the tarry dyes was to permit reasonable contact between solvent and the viscous, condensed dye.

[6] = No. 1 Fuel Oil, 1 Minute, aminoazobenzene dyes (Table 4)
[7] = No. 1 Fuel Oil, 10 Minutes, aminoazobenzene dyes (Table 4)
[8] = No. 1 Fuel Oil, 20 Minutes, aminoazobenzene dyes (Table 4)
[9] = No. 2 Fuel Oil, 1 Minute, aminoazobenzene dyes (Table 5)
[10] = No. 2 Fuel Oil, 10 Minutes, aminoazobenzene dyes (Table 5)
[11] = No. 2 Fuel Oil, 20 Minutes, aminoazobenzene dyes (Table 5)
[12] = No. 1 Fuel Oil, 1 Minute, aminoazotoluene dyes (Table 6)
[13] = No. 1 Fuel Oil, 10 Minutes, aminoazotoluene dyes (Table 6)
[14] = No. 1 Fuel Oil, 20 Minutes, aminoazotoluene dyes (Table 6)
[15] = No. 2 Fuel Oil, 1 Minute, aminoazotoluene dyes (Table 7)
[16] = No. 2 Fuel Oil, 10 Minutes, aminoazotoluene dyes (Table 7)
[17] = No. 2 Fuel Oil, 20 Minutes, aminoazotoluene dyes (Table 7)

| Physical State of Dye [1] | Percent Dissolved [5, 6] [%] | Percent Dissolved [5, 7] [%] | Percent Dissolved [5, 8] [%] | Percent Dissolved [5, 9] [%] | Percent Dissolved [5, 10] [%] | Percent Dissolved [5, 11] [%] | Percent Dissolved [5, 12] [%] | Percent Dissolved [5, 13] [%] | Percent Dissolved [5, 14] [%] | Percent Dissolved [5, 15] [%] | Percent Dissolved [5, 16] [%] | Percent Dissolved [5, 17] [%] | Structure (SMILES) | also measured |
| --- | --- | --- | --- | --- | --- | --- | --- | --- | --- | --- | --- | --- | --- | --- |
| Solid |  |  |  |  |  |  | 0.24 | 0.32 | 0.37 | 0.29 | 0.37 | 0.39 | CCNc1ccc2ccccc2c1N=Nc1ccc(N=Nc2ccccc2C)cc1C [Example 29] |  |
| Solid |  |  |  |  |  |  | 0.19 | 0.26 | 0.26 | 0.27 | 0.29 | 0.35 | CCCCNc1ccc2ccccc2c1N=Nc1ccc(N=Nc2ccccc2C)cc1C [Example 30] |  |
| Solid |  |  |  |  |  |  | 0.58 | 0.57 | 0.58 | 2.96 | 4.21 | 4.96 | COCCCNc1ccc2ccccc2c1N=Nc1ccc(N=Nc2ccccc2C)cc1C [Example 31] |  |
| Solid |  |  |  |  |  |  | 0.09 | 0.12 | 0.13 | 0.20 | 0.15 | 0.15 | Cc1ccccc1N=Nc1ccc(N=Nc2c(NCCOCCO)ccc3ccccc23)c(C)c1 [Example 32] |  |
| Solid |  |  |  |  |  |  | 1.31 | 1.28 | 1.27 | 0.93 | 1.01 | 1.11 | CCCCCCNc1ccc2ccccc2c1N=Nc1ccc(N=Nc2ccccc2C)cc1C [Example 33] |  |
| Solid |  |  |  |  |  |  | 5.33 | 6.23 | 7.40 | 3.70 |  | 3.97 | CCOCCOCCCNc1ccc2ccccc2c1N=Nc1ccc(N=Nc2ccccc2C)cc1C [Example 35] |  |
| Solid |  |  |  |  |  |  | 1.42 | 1.56 | 1.65 | 1.77 | 2.27 | 2.59 | CCCCCCCNc1ccc2ccccc2c1N=Nc1ccc(N=Nc2ccccc2C)cc1C [Example 36] |  |
| Solid |  |  |  |  |  |  | 1.38 | 1.39 | 1.78 | 2.26 | 2.89 | 2.69 | CCCCCCCCNc1ccc2ccccc2c1N=Nc1ccc(N=Nc2ccccc2C)cc1C [Example 37] |  |
| Solid |  |  |  |  |  |  | 1.09 | 1.13 | 1.14 | 1.30 | 1.37 | 1.48 | CCCCCCCCCCNc1ccc2ccccc2c1N=Nc1ccc(N=Nc2ccccc2C)cc1C [Example 39] |  |

Second part, the compound before the results:

| Structure (SMILES) | Physical State of Dye [1] | Percent Dissolved [5, 6] [%] | Percent Dissolved [5, 7] [%] | Percent Dissolved [5, 8] [%] | Percent Dissolved [5, 9] [%] | Percent Dissolved [5, 10] [%] | Percent Dissolved [5, 11] [%] | Percent Dissolved [5, 12] [%] | Percent Dissolved [5, 13] [%] | Percent Dissolved [5, 14] [%] | Percent Dissolved [5, 15] [%] | Percent Dissolved [5, 16] [%] | Percent Dissolved [5, 17] [%] | also measured |
| --- | --- | --- | --- | --- | --- | --- | --- | --- | --- | --- | --- | --- | --- | --- |
| CCCCC(CC)CNc1ccc2ccccc2c1N=Nc1ccc(N=Nc2ccccc2)cc1C (stereo not shown) [Example 3] |  |  |  |  |  |  |  |  |  |  |  |  |  | Physical State of Dye at 20° C. ([1]; 20° C.): Liquid; behavior of dye-fuel oil mixture on cooling/storage [2]: completely soluble and remained soluble at temperatures ranging from -10 °C to 25 °C; Solubility (% by Wt.) ([3]; No. 1 Heating Oil, 20° C.-25° C. (Table 8)): Complete; Solubility (% by Wt.) ([3]; No. 1 Heating Oil, -10° C. (Table 8)): Complete; Solubility (% by Wt.) ([3]; No. 2 Heating Oil, 20° C.-25° C. (Table 9)): Complete; Solubility (% by Wt.) ([3]; No. 2 Heating Oil, -10° C. (Table 9)): Complete; Solubility (% by Wt.) ([4]; 20° C.-25° C. (Table 12)): Complete; Solubility (% by Wt.) ([4]; -10° C. (Table 12)): Complete |
| CCNc1ccc2ccccc2c1N=Nc1ccc(N=Nc2ccccc2)cc1 [Example 16] | Solid | 1.05 | 1.36 | 1.48 | 1.49 | 1.64 | 1.78 |  |  |  |  |  |  |  |
| CCCCNc1ccc2ccccc2c1N=Nc1ccc(N=Nc2ccccc2)cc1 [Example 17] | Solid | 1.99 | 1.79 | 1.57 | 1.83 | 2.03 | 2.12 |  |  |  |  |  |  |  |
| COCCCNc1ccc2ccccc2c1N=Nc1ccc(N=Nc2ccccc2)cc1 [Example 18] | Solid | 2.02 | 3.15 | 3.57 | 0.66 | 0.68 | 0.73 |  |  |  |  |  |  |  |
| OCCOCCNc1ccc2ccccc2c1N=Nc1ccc(N=Nc2ccccc2)cc1 [Example 19] | Solid | 0.06 | 0.06 | 0.06 | 0.14 | 0.17 | 0.21 |  |  |  |  |  |  |  |
| CCCCCCNc1ccc2ccccc2c1N=Nc1ccc(N=Nc2ccccc2)cc1 [Example 20] | Solid | 4.65 | 4.47 | 4.35 | 5.12 | 5.12 | 5.27 |  |  |  |  |  |  |  |
| c1ccc(N=Nc2ccc(N=Nc3c(NC4CCCCC4)ccc4ccccc34)cc2)cc1 [Example 21] | Solid | 4.01 | 2.25 | 2.30 | 3.10 | 3.10 | 3.21 |  |  |  |  |  |  |  |
| CCOCCOCCCNc1ccc2ccccc2c1N=Nc1ccc(N=Nc2ccccc2)cc1 [Example 22] |  | 3.68 |  | 3.68 | 0.57 | 0.58 | 0.61 |  |  |  |  |  |  | solubility in fuel oils (in words) ([5]; No. 1 and No. 2 fuel oils): low solubility in both fuels much like that of a solid dye |
| CCCCCCCNc1ccc2ccccc2c1N=Nc1ccc(N=Nc2ccccc2)cc1 [Example 23] | Solid | 4.92 | 7.83 | 7.56 | 7.11 | 8.10 | 8.90 |  |  |  |  |  |  |  |
| CCCCCCCCNc1ccc2ccccc2c1N=Nc1ccc(N=Nc2ccccc2)cc1 [Example 24] | Solid | 12.05 | 7.26 | 5.96 | 5.48 | 6.25 | 6.25 |  |  |  |  |  |  |  |
| CCCCCCCCCCNc1ccc2ccccc2c1N=Nc1ccc(N=Nc2ccccc2)cc1 [Example 26] | Solid | 4.97 | 5.12 | 5.63 | 6.36 | 7.25 | 8.14 |  |  |  |  |  |  |  |
| CCCCCCCCCCCCNc1ccc2ccccc2c1N=Nc1ccc(N=Nc2ccccc2)cc1 [Example 28] | Solid | 2.85 | 4.60 | 5.38 | 7.46 | 8.17 | 9.06 |  |  |  |  |  |  |  |
| Cc1ccccc1N=Nc1ccc(N=Nc2c(NC3CCCCC3)ccc3ccccc23)c(C)c1 [Example 34] | Solid |  |  |  |  |  |  | 0.82 | 0.87 | 0.94 | 0.99 | 1.05 | 1.09 |  |
| CCCCCCCCCCCCNc1ccc2ccccc2c1N=Nc1ccc(N=Nc2ccccc2C)cc1C [Example 41] | Solid |  |  |  |  |  |  | 3.29 | 4.04 | 4.50 | 4.48 | 4.68 | 5.21 |  |
